# Results as given in PubChem BioAssay AID1845228.
# Conditions: pampa; 60.0 min; 50.0 µM
row,Structure (SMILES),Papp [×10⁻⁶ cm/s]
1,C[C@@H](O)[C@H]1C(=O)N2C(C(=O)O)=C([C@H]3CCCO3)S[C@H]12,< 1
2,Cn1nnnc1Sc1ncnc2scc(-c3ccc(Br)cc3)c12,159
3,CCOC(=O)[C@H](CCc1ccccc1)N[C@@H](C)C(=O)N1C(=O)N(C)C[C@H]1C(=O)O,< 1
4,C/C1=C\CC[C@]2(C)O[C@H]2C(=O)c2c(C)coc2C1,122
5,Cc1ccc(NC(=O)c2ccc(CN3CCNCC3)cc2)cc1Nc1nccc(-c2cccnc2)n1,19
6,COc1cccc2c1C(=O)c1c(O)c3c(c(O)c1C2=O)C[C@@](O)(C(C)=O)C[C@@H]3O[C@H]1C[C@H](N)[C@H](O)[C@H](C)O1,8
7,CC1(C)S[C@@H]2[C@H](NC(=O)C3(N)CCCCC3)C(=O)N2[C@H]1C(=O)O,54
8,N#Cc1c[nH]c2c(C(=O)N3CCN(CCc4ccc(F)cc4)CC3)cccc12,121
9,O=C(NCCc1cnc[nH]1)c1ccc(-c2ncc3cnc(-c4cccc(F)c4)cn23)cc1,< 1
10,CS/C=C/C(=O)O[C@@H]1CCC2=CC(=O)C(=C(C)C)C[C@]2(C)[C@H]1C,77
11,COc1ccc(CCn2cnc3c(c(-c4ccccc4)c(-c4ccccc4)n3Cc3ccccc3)c2=N)cc1OC,287
12,C1=C(c2cnc[nH]2)c2ccsc2CC1,5
13,CN(C)CCn1cnc2c(c(-c3ccccc3)c(-c3ccccc3)n2CCc2ccccc2)c1=N,148
14,Cc1[nH]c(/C=C2\C(=O)Nc3ccc(F)cc32)c(C)c1C(=O)NC[C@H](O)CN1CCOCC1,42
15,CO/N=C(/C(=O)N[C@@H]1C(=O)N2C(C(=O)O)=C(COC(N)=O)CS[C@H]12)c1ccco1,2
16,O=C(O)C1CN(Cc2ccc(-c3nc4cc(Cc5ccccc5F)ccc4s3)c(F)c2)C1,> 300
17,O=C1NCN(c2ccccc2)C12CCN(CCCC(c1ccc(F)cc1)c1ccc(F)cc1)CC2,42
18,CC(C)c1cc(-c2n[nH]c(=O)n2-c2ccc3c(ccn3C)c2)c(O)cc1O,79.5
19,Cn1nnnc1Sc1ncnc2scc(-c3ccc(Cl)cc3)c12,> 300
20,COCCn1cnc2c(c(-c3ccccc3)c(-c3ccccc3)n2Cc2ccc(OC)cc2)c1=N,231
21,CCOC(=O)c1ccc(NC(=O)c2sc3nc4c(cc3c2N)N2CCC4CC2)cc1,255
22,CC(C)C[C@@H](C(=O)N[C@@H](Cc1ccc(OCc2ccccc2)cc1)C(=O)NC(C)(C)C)N(C)Cc1ccc(C(C)(C)C)cc1,> 300
23,CNCCCOc1cc(F)c(-c2c(Cl)nc3ncnn3c2N[C@@H](C)C(F)(F)F)c(F)c1,26
24,N=c1c2c(-c3ccccc3)c(-c3ccccc3)n(CCc3ccccc3)c2ncn1CC1CCCO1 (stereo unspecified),269

row,Structure (SMILES),Papp [×10⁻⁶ cm/s]
1,O=C(NCCCN1CCCC1=O)c1ccc(-c2ncc3cnc(-c4ccccc4)cn23)cc1,31
2,CC(Oc1ccccc1)C(=O)N[C@@H]1C(=O)N2[C@@H]1SC(C)(C)[C@@H]2C(=O)O (stereo partly specified),25
3,c1nc(NC2CCCCCC2)c2cc(CNC[C@H]3CCCO3)sc2n1,105
4,O=[N+]([O-])c1nccn1CO[C@@H](CO)[C@H](O)CO,< 1
5,N=c1c2c(-c3ccccc3)c(-c3ccccc3)n(Cc3ccccc3)c2ncn1C1CCN(Cc2ccccc2)CC1,233
6,O=C1C[C@@]2(C(=O)N1)C(=O)N(Cc1ccc(Br)cc1F)C(=O)c1cccn12,21
7,O=C1NC(=O)C(c2ccccc2)(c2ccccc2)N1,42
8,Cc1cccc(-c2csc3ncnc(Sc4nnnn4C)c23)c1,225
9,O=C(CCl)Nc1cccc(NC2=NS(=O)(=O)c3ccccc32)c1,5.9
10,COCCn1cnc2c(c(-c3ccccc3)cn2Cc2ccccc2)c1=N,139
11,COC(=O)N[C@H](C(=O)N1CCC[C@H]1C(=O)Nc1ccc([C@@H]2CC[C@@H](c3ccc(NC(=O)[C@@H]4CCCN4C(=O)[C@@H](NC(=O)OC)C(C)C)cc3)N2c2ccc(C(C)(C)C)cc2)cc1)C(C)C,< 1
12,COCCn1cnc2c(c(-c3ccccc3)c(-c3ccccc3)n2Cc2ccccc2)c1=N,174
13,C=CC1=C(C(=O)O)N2C(=O)[C@@H](NC(=O)/C(=N/OCC(=O)O)c3csc(N)n3)[C@H]2SC1,4
14,CCCCCCCCc1ccc(CCC(N)(CO)CO)cc1,< 1
15,Clc1ccc(CN[C@H]2CCN(c3ncc(Br)cn3)C2)c(Cl)c1,> 300
16,CCOc1cc2ncc(C#N)c(Nc3ccc(F)c(Cl)c3)c2cc1NC(=O)C=CCN(C)C,256
17,CC(C)N(CCCCOCC(=O)NS(C)(=O)=O)c1cnc(-c2ccccc2)c(-c2ccccc2)n1,9
18,CON(C)Cc1ccc(O)c2c1C[C@H]1C[C@H]3[C@H](N(C)C)C(=O)C(C(N)=O)=C(O)[C@@]3(O)C(=O)C1=C2O,2
19,O=C(c1ccc(-c2ncc3cnc(-c4ccccc4)cn23)cc1)N1CCS(=O)(=O)CC1,20
20,CCCCC/C=C/C(=O)CCc1ccc(O)c(OC)c1,187
21,FC(F)(F)c1ccccc1-c1cc(C(F)(F)F)c2nc(C3=NOC4(CCCCC4)C3)[nH]c2c1,8
22,COC(Cn1cnc2c(c(-c3ccccc3)c(-c3ccccc3)n2Cc2ccccc2)c1=N)OC,189
23,CCCCOC(=O)NS(=O)(=O)c1sc(CC(C)C)cc1-c1ccc(Cn2ccnc2)cc1,180
24,Cn1nnnc1Sc1ncnc2scc(-c3ccc4c(c3)OCO4)c12,240

row,Structure (SMILES),Papp [×10⁻⁶ cm/s]
1,N=c1c2c(-c3ccccc3)c(-c3ccccc3)n(Cc3ccccc3)c2ncn1[C@H](CO)Cc1ccccc1,< 1
2,Cc1onc(-c2ccccc2)c1C(=O)N[C@@H]1C(=O)N2[C@@H]1SC(C)(C)[C@@H]2C(=O)O,8
3,CCN(CC)CC(=O)Oc1ccc(NC(C)=O)cc1,7
4,O=C(NC1CCC(O)CC1)c1ccc(-c2ncc3cnc(-c4ccccc4)cn23)cc1 (stereo unspecified),35
5,CC(=O)OCC1=C(C(=O)O)N2C(=O)C(NC(=O)Cc3cccs3)C2SC1 (stereo unspecified),2
6,Cc1ccccc1NC(=O)Nc1ccc(CC(=O)N(C)[C@@H](CC(C)C)C(=O)NCC[C@H](NC(=O)[C@@H]2CCCN2S(=O)(=O)c2cc(Cl)cc(Cl)c2)C(=O)O)cc1,5
7,CCCN(CCC)CCc1cccc2c1CC(=O)N2,34
8,CCOC(=O)c1cc(=O)c2c(OCC(COc3cccc4oc(C(=O)OCC)cc(=O)c34)OC(=O)[C@@H](N)CCCCN)cccc2o1,< 1
9,N=c1c2c(-c3ccccc3)c(-c3ccccc3)n(CCc3ccccc3)c2ncn1[C@H](CO)Cc1ccccc1,< 1
10,Cc1cccc(C#Cc2cc(F)cc(C#N)c2)n1,209
11,O=C1CCc2ccc(OCCCCN3CCN(c4cccc(Cl)c4Cl)CC3)cc2N1,19
12,COc1ccc(S(=O)(=O)Nc2cccnc2Nc2ccc(O)cc2)cc1,13
13,CCN(CC)CCNC(=O)c1c(C)[nH]c(/C=C2\C(=O)Nc3ccc(F)cc32)c1C,56
14,N=c1c2c(-c3ccccc3)c(-c3ccccc3)n(Cc3ccccc3)c2ncn1CCNc1ccncc1,90
15,COc1ccc(-n2nc(C(F)F)cc2-c2ccc(S(C)=O)cc2)cc1 (stereo unspecified),115
16,O=C(C[C@@H]1NCCC[C@H]1O)Cn1cnc2cc(Br)c(Cl)cc2c1=O,43
17,N#Cc1ccc(C(=O)Nc2ccc(Cl)c(-c3nc4ncccc4o3)c2)c(F)c1,160
18,CCOC(=N)c1nc2ccc3ncnc(Nc4cc(F)c(F)cc4Cl)c3c2s1,1.2
19,O=C(Nc1cccnc1)c1cccs1,10
20,CCOc1ccc(CCNC(=O)c2cc3ccccc3n2Cc2cccc(C)n2)cc1OCC,271
21,O=C(O)C[C@H]1CCc2c1[nH]c1ccc(OCc3ccc(C4CCCC4)c(C(F)(F)F)c3)cc21,46
22,Cc1nc(C2CCCCC2)c(-c2ccc(S(N)(=O)=O)c(F)c2)o1,172
23,Cc1c2ccncc2c(C)c2c1[nH]c1ccccc12,> 300
24,COc1ccc(Cn2c(-c3ccccc3)c(-c3ccccc3)c3c(=N)n(CC(OC)OC)cnc32)cc1,272

row,Structure (SMILES),Papp [×10⁻⁶ cm/s]
1,N=c1c2c(-c3ccccc3)cn(Cc3ccccc3)c2ncn1CCN,131
2,CC(C)[C@]12O[C@H]1[C@@H]1O[C@]13[C@]1(O[C@H]1C[C@H]1C4=C(CC[C@@]13C)C(=O)OC4)[C@@H]2O,< 1
3,COc1ccc(Cn2c(-c3ccccc3)c(-c3ccccc3)c3c(=N)n(CCO)cnc32)cc1,279
4,COc1ccc(N(C)c2nc(C)nc3ccccc23)cc1,220
5,N=c1c2c(-c3ccccc3)cn(Cc3ccc(Br)cc3)c2ncn1CCCCO,208
6,O=C(Cc1cccs1)NC1C(=O)N2C(C(=O)[O-])=C(C[n+]3ccccc3)CSC12 (stereo unspecified),< 1
7,NC(=O)c1cccc(-c2cc(O)cc(OC(=O)NC3CCCCC3)c2)c1,6
8,CCC(=O)N1CCN(c2ccc(-n3c(=O)ccc4cnc5ccc(-c6cnc7ccccc7c6)cc5c43)cc2C(F)(F)F)CC1,158
9,Cc1nc2c([nH]1)CCN(C(=O)c1ccc(NC(=O)c3ccccc3-c3ccccc3)cc1)c1ccccc1-2,98
10,COc1c(C)c2c(c(O)c1C/C=C(\C)CCC(=O)O)C(=O)OC2,< 1
11,Cc1cc2c(C(N)=O)cccc2n1-c1nc2c(c(NCc3ccccc3)n1)COCC2,90
12,CC(=O)NCCNC(=O)c1ccc(-c2ncc3cnc(-c4cccc(F)c4)cn23)cc1,11
13,CC[C@@H]1CN(C(=O)NCC(F)(F)F)C[C@@H]1c1cnc2cnc3[nH]ccc3n12,2
14,COc1ccc2c(c[n+](C)c3c4cc5c(cc4ccc23)OCO5)c1OC,121
15,COCCn1cnc2c(c(-c3ccccc3)c(-c3ccccc3)n2CCc2ccccc2)c1=N,116
16,Cn1cc(C2=C(c3cn(CCCSC(=N)N)c4ccccc34)C(=O)NC2=O)c2ccccc21,< 1
17,CCc1ccc(C2C(C(=O)Nc3ccccc3OC)=C(C)Nc3c(C(=O)Nc4ccc(C)cc4)cnn32)cc1 (stereo unspecified),26
18,Nc1ccc(/C=C/C(=O)NCc2cc3cc(-c4ccc(C(=O)N5CCC(F)(F)CC5)cc4)cc(-c4ccc(F)cc4)c3o2)cn1,< 1
19,Cc1ccnc2c1NC(=O)c1cccnc1N2C1CC1,26
20,CC(C)N(CCCNC(=O)Nc1ccc(C(C)(C)C)cc1)C[C@H]1O[C@@H](n2ccc3c(N)ncnc32)[C@H](O)[C@@H]1O,< 1
21,CN(C)CCn1cnc2c(c(-c3ccccc3)c(-c3ccccc3)n2Cc2ccccc2)c1=N,76
22,CC(=CCCC1=CCC(C2=CC(=O)OC2O)OC1O)CCC1=C(C)CCCC1(C)C (stereo unspecified),9.8
23,CC(=O)Nc1cccc(-n2c(=O)n(C3CC3)c(=O)c3c(Nc4ccc(I)cc4F)n(C)c(=O)c(C)c32)c1,259
24,CC[C@@H](c1ccc(F)c(F)c1)n1c(C(=O)OC)c(-c2ccno2)[nH]c1=S,195
